Reference: ChEMBL document CHEMBL1201862, “PubChem BioAssay data set” (2004)
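All cell lines were grown in 96-well plates and treated with compound for 48 hours. The concentration for 50% growth inhibition is given as GI50.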 Active and inactive are the calls of the source. No stated cut-off is given here; in the data, active = GI50 up to about 1.1 µM and inactive = higher.

Experiments:
Assay in all cases: inhibition of tumour cell growth, NCI panel, 48 h
SF-268 = system: SF-268
HOP-62 = system: HOP-62
U-251 = system: U-251
SK-MEL-28 = system: SK-MEL-28
NCI-H23 = system: NCI-H23
SNB-78 = system: SNB-78
M14 = system: M14
HOP-18 = system: HOP-18
M19-MEL = system: M19-MEL
NCI-H226 = system: NCI-H226
KM12 = system: KM12
ACHN = system: ACHN
MOLT-4 = system: MOLT-4
CAKI-1 = system: CAKI-1
786-0 = system: 786-0
IGROV-1 = system: IGROV-1
OVCAR-8 = system: OVCAR-8
DLD-1 = system: DLD-1
NCI-H460 = system: NCI-H460
UACC-62 = system: UACC-62
XF498 = system: XF498
K562 = system: K562
OVCAR-4 = system: OVCAR-4
SR = system: SR
SK-OV-3 = system: SK-OV-3
HCC 2998 = system: HCC 2998
RXF 393 = system: RXF 393
NCI-H522 = system: NCI-H522
HL-60 = system: HL-60
HCT-116 = system: HCT-116
SW-620 = system: SW-620
OVCAR-5 = system: OVCAR-5
SNB-19 = system: SNB-19
HCT-15 = system: HCT-15
SK-MEL-2 = system: SK-MEL-2
UO-31 = system: UO-31
COLO 205 = system: COLO 205
LOX IMVI = system: LOX IMVI
EKVX = system: EKVX
DMS-273 = system: DMS-273
KM-20L2 = system: KM-20L2
Malme-3M = system: Malme-3M
SF-539 = system: SF-539
SN12C = system: SN12C
UACC-257 = system: UACC-257
SNB-75 = system: SNB-75
SF-295 = system: SF-295
HT-29 = system: HT-29
LXFL 529 = system: LXFL 529
CCRF-CEM = system: CCRF-CEM
A549 = system: A549
TK-10 = system: TK-10
RPMI-8226 = system: RPMI-8226
SK-MEL-5 = system: SK-MEL-5
OVCAR-3 = system: OVCAR-3
MCF7 = system: MCF7
A498 = system: A498
HOP-92 = system: HOP-92
DMS-114 = system: DMS-114
NCI/ADR-RES = system: NCI/ADR-RES

COc1ccc(-c2cc3ccccc3[nH]c2=O)cc1OC
GI50 (SF-268): > 100 µM (inactive) | GI50 (HOP-62): > 100 µM (inactive) | GI50 (U-251): 71.6 µM (inactive) | GI50 (SK-MEL-28): > 100 µM (inactive) | GI50 (NCI-H23): > 100 µM (inactive) | GI50 (SNB-78): > 100 µM (inactive) | GI50 (M14): > 100 µM (inactive) | GI50 (HOP-18): > 100 µM (inactive) | GI50 (M19-MEL): > 100 µM (inactive) | GI50 (NCI-H226): > 100 µM (inactive) | GI50 (KM12): > 100 µM (inactive) | GI50 (ACHN): > 100 µM (inactive) | GI50 (MOLT-4): > 100 µM (inactive) | GI50 (CAKI-1): > 100 µM (inactive) | GI50 (786-0): > 100 µM (inactive) | GI50 (IGROV-1): > 100 µM (inactive) | GI50 (OVCAR-8): > 100 µM (inactive) | GI50 (DLD-1): > 100 µM (inactive) | GI50 (NCI-H460): > 100 µM (inactive) | GI50 (UACC-62): > 100 µM (inactive) | GI50 (XF498): > 100 µM (inactive) | GI50 (K562): > 100 µM (inactive) | GI50 (OVCAR-4): > 100 µM (inactive) | GI50 (SR): > 100 µM (inactive) | GI50 (SK-OV-3): > 100 µM (inactive) | GI50 (HCC 2998): > 100 µM (inactive) | GI50 (RXF 393): 47.5 µM (inactive) | GI50 (NCI-H522): > 100 µM (inactive) | GI50 (HL-60): > 100 µM (inactive) | GI50 (HCT-116): > 100 µM (inactive) | GI50 (SW-620): > 100 µM (inactive) | GI50 (OVCAR-5): > 100 µM (inactive) | GI50 (SNB-19): > 100 µM (inactive) | GI50 (HCT-15): > 100 µM | GI50 (SK-MEL-2): > 100 µM (inactive) | GI50 (UO-31): > 100 µM (inactive) | GI50 (COLO 205): > 100 µM (inactive) | GI50 (LOX IMVI): > 100 µM (inactive) | GI50 (EKVX): > 100 µM (inactive) | GI50 (DMS-273): > 100 µM (inactive) | GI50 (KM-20L2): > 100 µM (inactive) | GI50 (Malme-3M): > 100 µM (inactive) | GI50 (SF-539): > 100 µM (inactive) | GI50 (SN12C): > 100 µM (inactive) | GI50 (UACC-257): > 100 µM (inactive) | GI50 (SNB-75): > 100 µM (inactive) | GI50 (SF-295): > 100 µM (inactive) | GI50 (HT-29): > 100 µM (inactive) | GI50 (LXFL 529): > 100 µM (inactive) | GI50 (CCRF-CEM): > 100 µM (inactive) | GI50 (A549): > 100 µM (inactive) | GI50 (TK-10): > 100 µM (inactive) | GI50 (RPMI-8226): > 100 µM (inactive)

Nc1ncc2c(n1)-c1ccccc1OC2
GI50 (SF-268): > 100 µM (inactive) | GI50 (HOP-62): 76 µM (inactive) | GI50 (U-251): > 100 µM (inactive) | GI50 (SK-MEL-28): > 100 µM (inactive) | GI50 (NCI-H23): > 100 µM (inactive) | GI50 (SK-MEL-5): > 100 µM (inactive) | GI50 (SNB-78): > 100 µM (inactive) | GI50 (OVCAR-3): > 100 µM (inactive) | GI50 (HOP-18): > 100 µM (inactive) | GI50 (M19-MEL): > 100 µM (inactive) | GI50 (NCI-H226): 36.6 µM (inactive) | GI50 (MCF7): > 100 µM (inactive) | GI50 (KM12): > 100 µM (inactive) | GI50 (A498): 51.2 µM (inactive) | GI50 (MOLT-4): > 100 µM (inactive) | GI50 (IGROV-1): 40.4 µM (inactive) | GI50 (OVCAR-8): > 100 µM (inactive) | GI50 (DLD-1): > 100 µM (inactive) | GI50 (NCI-H460): > 100 µM (inactive) | GI50 (UACC-62): 55.7 µM (inactive) | GI50 (HOP-92): 98.4 µM (inactive) | GI50 (XF498): > 100 µM (inactive) | GI50 (DMS-114): > 100 µM (inactive) | GI50 (K562): > 100 µM (inactive) | GI50 (OVCAR-4): > 31.6 µM (inactive) | GI50 (SK-OV-3): > 100 µM (inactive) | GI50 (HCC 2998): > 100 µM (inactive) | GI50 (RXF 393): > 69.2 µM (inactive) | GI50 (NCI-H522): > 100 µM (inactive) | GI50 (HL-60): > 100 µM (inactive) | GI50 (HCT-116): > 100 µM (inactive) | GI50 (SW-620): > 100 µM (inactive) | GI50 (OVCAR-5): > 100 µM (inactive) | GI50 (SNB-19): > 100 µM (inactive) | GI50 (HCT-15): > 100 µM | GI50 (SK-MEL-2): > 100 µM (inactive) | GI50 (UO-31): 45.2 µM (inactive) | GI50 (COLO 205): > 100 µM (inactive) | GI50 (LOX IMVI): > 100 µM (inactive) | GI50 (EKVX): 94.4 µM (inactive) | GI50 (DMS-273): > 80.5 µM (inactive) | GI50 (KM-20L2): > 100 µM (inactive) | GI50 (Malme-3M): > 100 µM (inactive) | GI50 (SF-539): > 100 µM (inactive) | GI50 (SN12C): > 100 µM (inactive) | GI50 (UACC-257): > 100 µM (inactive) | GI50 (SNB-75): 22.6 µM (inactive) | GI50 (SF-295): > 100 µM (inactive) | GI50 (HT-29): > 100 µM (inactive) | GI50 (NCI/ADR-RES): > 100 µM (inactive) | GI50 (CCRF-CEM): > 100 µM (inactive) | GI50 (A549): > 100 µM (inactive) | GI50 (RPMI-8226): > 100 µM (inactive)
